# From patent publication US6719996B2, “Galenic composition for low bioavailability medicaments” (Hoffmann-La Roche Inc., priority 2000, dated 2004)
# Assay: Solubility in cocoa butter/lecithin mixtures
# Type: physicochemical
# Conditions: oil or lipid
smiles,measurement,value
"Cc1ccccc1-c1cc(N2CCOCC2)ncc1N(C)C(=O)C(C)(C)c1cc(C(F)(F)F)cc(C(F)(F)F)c1 [2-(3,5-bis-trifluoromethyl-phenyl)-N-methyl-N-(6-morpholin-4-yl-4-o-tolyl-pyridin-3-yl)-isobutyramide]",solubility,< 15 mg/mL
